Results from ChEMBL document CHEMBL3102764, “Discovery of 3-(trifluoromethyl)-1H-pyrazole-5-carboxamide activators of the M2 isoform of pyruvate kinase (PKM2)” (Bioorg Med Chem Lett, 2014).
Values belong to the molecule of their own block, whether it stands above or below them.

Columns and labels:
[1] = molecular target: T1, Pyruvate kinase PKM (Homo sapiens, UniProt P14618); experiment: Activation of PKM2 (unknown origin) assessed as PEP conversion to pyruvate measured as concentration required for 50% activation by luminescence assay
Target sequence in this assay (P14618 whole entry): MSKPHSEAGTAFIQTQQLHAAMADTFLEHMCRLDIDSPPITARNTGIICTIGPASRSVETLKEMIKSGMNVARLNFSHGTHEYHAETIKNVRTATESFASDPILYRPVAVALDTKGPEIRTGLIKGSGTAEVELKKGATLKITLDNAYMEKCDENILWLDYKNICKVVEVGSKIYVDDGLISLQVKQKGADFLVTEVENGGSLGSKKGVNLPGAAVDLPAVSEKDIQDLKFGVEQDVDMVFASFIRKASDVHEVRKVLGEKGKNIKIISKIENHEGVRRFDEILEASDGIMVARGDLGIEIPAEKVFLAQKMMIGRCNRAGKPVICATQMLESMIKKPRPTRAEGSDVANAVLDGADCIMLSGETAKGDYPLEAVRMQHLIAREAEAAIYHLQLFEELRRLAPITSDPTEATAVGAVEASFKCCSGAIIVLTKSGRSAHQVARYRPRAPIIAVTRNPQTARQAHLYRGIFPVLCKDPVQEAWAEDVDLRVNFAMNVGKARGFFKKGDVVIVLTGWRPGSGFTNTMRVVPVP

[2] = molecular target: T1, Pyruvate kinase PKM; experiment: Activation of PKM2 in human A549 cells; assay type: cell-based
Target sequence in this assay (P14618 2-531 limits assumed): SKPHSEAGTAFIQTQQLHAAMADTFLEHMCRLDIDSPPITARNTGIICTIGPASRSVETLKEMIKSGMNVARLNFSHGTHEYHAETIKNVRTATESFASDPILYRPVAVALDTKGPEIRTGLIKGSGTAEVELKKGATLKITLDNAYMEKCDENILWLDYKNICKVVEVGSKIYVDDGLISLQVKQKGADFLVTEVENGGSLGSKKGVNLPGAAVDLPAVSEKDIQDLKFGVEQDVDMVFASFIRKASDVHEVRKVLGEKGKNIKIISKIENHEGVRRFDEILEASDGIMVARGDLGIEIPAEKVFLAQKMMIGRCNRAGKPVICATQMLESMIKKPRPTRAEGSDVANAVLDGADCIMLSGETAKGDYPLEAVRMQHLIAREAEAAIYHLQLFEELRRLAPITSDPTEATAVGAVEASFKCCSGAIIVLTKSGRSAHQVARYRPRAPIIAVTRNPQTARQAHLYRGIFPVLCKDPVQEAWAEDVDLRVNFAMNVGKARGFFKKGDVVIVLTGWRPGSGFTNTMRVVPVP

[3] = molecular target: T1, Pyruvate kinase PKM; experiment: Activation of PKM2 in human NCI-H1299 cells; assay type: cell-based
Target sequence in this assay (P14618 2-531 limits assumed): as above

Compound: O=C(NCc1ccccc1)c1cc(Br)c[nH]1
AC50 ([1]; read-out: AC50): 36 µM

Compound: O=C(c1cc(Br)c[nH]1)N(Cc1ccc(O)cc1)CC1CCC1
AC50 ([1]; read-out: AC50): 1.71 µM

Compound: O=C(c1cc(Br)c[nH]1)N(Cc1ccc(O)cc1F)CC1CCC1
AC50 ([1]; read-out: AC50): 0.75 µM

Compound: CCCN(Cc1ccccc1)C(=O)c1cc(Br)c[nH]1
AC50 ([1]; read-out: AC50): 6 µM

Compound: O=C(c1cc(Br)c[nH]1)N(Cc1ccccc1)CC1CCC1
AC50 ([1]; read-out: AC50): 2.3 µM

Compound: CCCCCN(Cc1ccccc1)C(=O)c1cc(Br)c[nH]1
AC50 ([1]; read-out: AC50): 4.45 µM

Compound: O=C(c1cc(Br)c[nH]1)N(Cc1cccc(O)c1)CC1CCC1
AC50 ([1]; read-out: AC50): 3.03 µM

Compound: O=C(c1cc(Br)c[nH]1)N(Cc1ccccc1)CC1CC1
AC50 ([1]; read-out: AC50): 12.2 µM

Compound: Nc1ccc(CN(CC2CCC2)C(=O)c2cc(Br)c[nH]2)cc1
AC50 [1]: Not Active

Compound: O=C(c1cc(Br)c[nH]1)N(Cc1cccc(F)c1)CC1CCC1
AC50 ([1]; read-out: AC50): 3.85 µM

Compound: O=C(c1cc(Cl)n[nH]1)N(Cc1ccc(O)cc1F)CC1CCC1
Activity [2]: 0.45 µM | Activity [3]: 0.3 µM

Compound: O=C(c1cc(Br)n[nH]1)N(Cc1ccc(O)cc1F)CC1CCC1
Activity [2]: 0.06 µM | Activity [3]: 0.055 µM | AC50 ([1]; read-out: AC50): 0.034 µM

Compound: O=C(c1cc(Br)c[nH]1)N(Cc1ccccc1)CC1CCCCC1
AC50 [1]: Not Active

Compound: N#Cc1cc(C(=O)N(Cc2ccc(O)cc2F)CC2CCC2)[nH]n1
AC50 ([1]; read-out: AC50): 4.47 µM

Compound: CCN(Cc1ccccc1)C(=O)c1cc(Br)c[nH]1
AC50 [1]: Not Active

Compound: N#Cc1ccc(CN(CC2CCC2)C(=O)c2cc(Br)c[nH]2)cc1
AC50 [1]: Not Active

Compound: O=C(c1cc(Br)c[nH]1)N(Cc1ccc(F)cc1)CC1CCC1
AC50 ([1]; read-out: AC50): 12.1 µM

Compound: Nc1cc(C(=O)N(Cc2ccc(O)cc2F)CC2CCC2)[nH]n1
AC50 ([1]; read-out: AC50): > 30 µM

Compound: O=C(c1cc(Br)c[nH]1)N(Cc1ccccc1)CC1CCCC1
AC50 [1]: Not Active

Compound: O=C(c1cc(Br)c[nH]1)N(Cc1ccc(Cl)cc1)CC1CCC1
AC50 [1]: Not Active

Compound: CCCCN(Cc1ccccc1)C(=O)c1cc(Br)c[nH]1
AC50 ([1]; read-out: AC50): 6.33 µM

Compound: COc1ccc(CN(CC2CCC2)C(=O)c2cc(Br)c[nH]2)cc1
AC50 [1]: Not Active

More lines, now with the values ahead:

Activity [2]: 0.308 µM | Activity [3]: 0.364 µM
Compound: O=C(c1cc(C(F)(F)F)n[nH]1)N(Cc1cccc2[nH]ccc12)CC1CCC1

Activity [2]: 0.26 µM | Activity [3]: 0.22 µM
Compound: O=C(c1cc(C(F)(F)F)n[nH]1)N(Cc1ccc(O)cc1F)CC1CCC1

Activity [2]: 1.99 µM | Activity [3]: 1.42 µM
Compound: O=C(c1cc(Br)n[nH]1)N(Cc1cccc2[nH]cnc12)CC1CCC1

AC50 ([1]; read-out: AC50): 3.13 µM
Compound: O=C(c1cc(Br)n[nH]1)N(Cc1cccc2[nH]ncc12)CC1CCC1

AC50 ([1]; read-out: AC50): 1.29 µM
Compound: O=C(c1cc(Br)c[nH]1)N(Cc1ccccc1O)CC1CCC1

Activity [2]: 6.73 µM | AC50 ([1]; read-out: AC50): 0.757 µM
Compound: O=C(c1cc(Cl)n[nH]1)N(Cc1cccc2[nH]ccc12)CC1CCC1

Activity [2]: 5.94 µM | Activity [3]: 6.4 µM | AC50 ([1]; read-out: AC50): 2.93 µM
Compound: O=C(c1cc(Cl)n[nH]1)N(Cc1cccc2[nH]ncc12)CC1CCC1

AC50 ([1]; read-out: AC50): 3.9 µM
Compound: O=C(c1cc(Br)c[nH]1)N(Cc1ccccc1F)CC1CCC1

Activity [2]: 12.9 µM | Activity [3]: 16.6 µM | AC50 ([1]; read-out: AC50): 3.05 µM
Compound: O=C(c1cc(Br)n[nH]1)N(Cc1cccc2[nH]c(=O)sc12)CC1CCC1
